From US20070078434A1, “Indications For Local Transport of Anaesthetic Agents By Electrotransport Devices” (Vyteris, Inc., priority 2005, published 2007)
Structures can show the parent of a compound that is named as a salt. Where two headings read alike, the source gives them in different places. Values belong to the molecule of their own block, whether it stands above or below them.

Legend:
[1] = system: anesthetized guinea pigs; experiment: In vivo delivery of radiolabeled drug into anesthetized guinea pigs
[2] = iontophoresis in vitro across human skin; cited from earlier work
[3] = system: subjects; experiment: Study 16: Platform IIA under various treatment conditions; format: in vivo, human; settings: patches containing lidocaine 10% with and without epinephrine
[4] = system: anesthetized guinea pigs; settings: guinea pig, in vivo
[5] = codelivered with 300 mg of lidocaine; cited from earlier work

Structure (SMILES): CCN(CC)CC(=O)Nc1c(C)cccc1C.Cl [lidocaine, 2-(Diethylamino)-2′,6′-acetoxylidide mono hydrochloride, monohydrate]
amount delivered per patch [1]: 467 µg

Structure (SMILES): CCCNC(C)C(=O)Nc1ccccc1C (stereo not shown) [prilocaine]
cumulative delivery compared with lidocaine [2]: slightly greater delivery

Structure (SMILES): CCN(CC)CCOC(=O)c1ccc(N)cc1 [procaine]
cumulative delivery compared with lidocaine [2]: slightly greater delivery

Structure (SMILES): CCCN(CC)C(CC)C(=O)Nc1c(C)cccc1C (stereo not shown) [etidocaine]
cumulative delivery compared with lidocaine [2]: slightly greater delivery

amount delivered per patch [4]: 2.4 µg
Structure (SMILES): CNCC(O)c1ccc(O)c(O)c1 [epinephrine, 1,2 Beizenediol, 4-[1-hydroxy-2-(methylamino)ethyl]-,(R)—, [R—(R*,R*)]-2,3-dihydroxybutanedioate (1:1) (salt)]
effect of epinephrine on the anaesthetic effect of lidocaine [3]: significantly enhanced
maximum recommended dose [5]: 150 µg
